{"source": "patent US20240398833A1", "about": "“PHARMACEUTICAL COMPOSITION CONTAINING 27-HYDROXYCHOLESTEROL FOR PREVENTING OR TREATING MYELOID LEUKEMIA” (PUSAN NATIONAL UNIVERSITY INDUSTRY-UNIVERSITY COOPERATION …, priority 2021, published 2024)", "key": {"[1]": {"system": "HL60 cells and K562 cells", "experiment": "Leukemia cell growth comparison, cell count by trypan blue", "format": "cell-based", "settings": "6.2 μM, 48 hours; for number of cells in leukemia cell lines: HL60 and K562", "experimental": "An acute myeloid leukemia cell line HL60, and a chronic myeloid leukemia cell line, K562 cells were treated with 6.2 μM of cholesterol, 7α-hydroxycholesterol, and 27-hydroxycholesterol for 48 hours and then strained with trypan blue, and then the cell count was confirmed."}, "[2]": {"system": "hematopoietic stem and progenitor cells (HSPC)", "experiment": "Reactive oxygen species (DCFDA staining, FACS) in mouse bone marrow cells", "format": "cell-based", "experimental": "(§1) Bone marrow cells were extracted from the mouse tibia and femur and treated with 6.2 μM of 27-hydroxycholesterol for 48 hours. In order to confirm apoptosis, the cells treated with 27-hydroxycholesterol were collected, the cells were dissolved in a 1× Annexin binding buffer, added with Annexin V and 7AAD, and analyzed using FACScanto2 equipment, and in order to confirm reactive oxygen species, the cells were dissolved in an FACS staining buffer, added with DCFDA, stained at 37° C. for 30 minutes, and analyzed using FACScanto2 equipment. As a result, an effect of 27-hydroxycholesterol on increased apoptosis and reactive oxygen species (ROS) in hematopoietic stem and progenitor cells (HSPC) was confirmed and illustrated in FIG. 2 [Con or Ctrl: mouse bone marrow cells untreated, Chol: mouse bone marrow cells treated with cholesterol, 27HC: mouse bone marrow cells treated with 27-hydroxycholesterol]."}, "[3]": {"system": "myeloid leukemia cells (HL60, KG1a, K562 cells)", "experiment": "Differentiation marker CD11b staining in leukemia cell lines", "format": "cell-based", "settings": "compared to control cells", "experimental": "(§2) Next, the apoptosis and the ROS proportions were analyzed through DCFDA staining. In addition, to confirm the effect of 27-Hydroxycholesterol on the differentiation of leukemia cell lines, a differentiation marker, CD11b was stained and analyzed using FACScanto 2 equipment. As a result, it was confirmed that the ROS proportion was high in the leukemia cell line treated with 27-hydroxycholesterol, which was illustrated in FIG. 4 [Con: untreated leukemia cell line, Chol: leukemia cell line treated with cholesterol, 27HC: leukemia cell line treated with 27-hydroxycholesterol]."}, "[4]": {"system": "LKS cells and hematopoietic progenitor cells (HPC)", "experiment": "qRT-PCR gene expression in sorted LKS cells and hematopoietic progenitor cells", "format": "cell-based, mouse", "settings": "6.2 μM, 48 hours", "experimental": "Bone marrow cells were extracted from the mouse tibia and femur and treated with 6.2 μM of 27-hydroxycholesterol for 48 hours. After treatment, the cells were added with PE-Cy5-CD3, PE-Cy5-CD4, PE-Cy5-CD8, PE-Cy5-CD19, PE-Cy5-B220, PE-Cy5-GR1, PE-Cy5-Ter119, PE-Sca1, APC-Add cKit, PE-Cy7-CD150, and APC-Cy7-CD48 antibodies, stained for 30 minutes at 4° C., and then LKS (Lin-Sca1^+cKit^+) and hematopoietic progenitor cells (Lin^−Sca1^+cKit^+CD48^+) were separated using FACSAria. Thereafter, RNA was extracted from the cells using an RNA extraction kit, and cDNA was synthesized from RNA using a cDNA synthesis kit. The synthesized cDNA was subjected to qRT-PCR using primers related to apoptosis and ER stress and SYBR-green. As a result, it was confirmed that gene expression related to apoptosis and ER stress was increased according to treatment of 27-hydroxycholesterol in LKS and hematopoietic progenitor cells, which were immature cells, compared to total bone marrow cells, as illustrated in FIG. 6."}, "[5]": {"system": "hematopoietic stem and progenitor cells (HSPC)", "format": "cell-based, mouse", "experimental": "The bone marrow was extracted from the mouse tibia and femur using an FACS staining buffer (phosphate-buffered saline, 2% FBS, penicillin/streptomycin), and then bone marrow cells were extracted by lysing red blood cells using an ACK lysis buffer and treated with 0.62 μM or 6.2 μM 27-hydroxycholesterol for 24 or 48 hours. After treatment, antibodies were attached and the cells were analyzed using FACSCanto2 equipment. As a result, the effect of 27-hydroxycholesterol on decreased hematopoietic stem and progenitor cells (HSPC) was confirmed, and illustrated in FIGS. 1 and 11 [Con: untreated mouse bone marrow cells, Chol: mouse bone marrow cells treated with cholesterol, 27HC: mouse bone marrow cells treated with 27-hydroxycholesterol]."}, "[6]": {"system": "ER stress response pathway", "experiment": "Western blot of ER stress proteins (pIRE1α, IRE1α, PERK, ATF4, elF2α)", "format": "cell-based"}, "[7]": {"system": "myeloid leukemia cells (HL60, KG1a, K562 cells)", "experiment": "Apoptosis (Annexin V / 7AAD, FACS) in leukemia cell lines", "format": "cell-based", "settings": "6.2 μM, 48 hours, compared to control cells", "experimental": "(§3) Acute myeloid leukemia cell lines HL60 and KG1 α, and chronic myeloid leukemia cell line, K562 cells were treated with 6.2 μM of 27-hydroxycholesterol for 48 hours and then strained with trypan blue, and then the cell count was confirmed. In addition, the cells were added with Annexin V and 7AAD, and the apoptosis was analyzed using FACScanto2 equipment. As a result, it was confirmed that compared to untreated cells (Con) and a cholesterol-treated leukemia cell line (Chol), 27-hydroxycholesterol increased the apoptosis in a leukemia cell line (27HC) to reduce the number of cells, which was illustrated in FIG. 3 [Con: untreated leukemia cell line, Chol: leukemia cell line treated with cholesterol, 27HC: leukemia cell line treated with 27-hydroxycholesterol]."}, "[8]": {"system": "myeloid leukemia cells (HL60, KG1a, and K562 cells)", "experiment": "Leukemia cell count by trypan blue", "format": "cell-based", "settings": "6.2 μM, 48 hours; negative control HEK293T cells", "experimental": "as §3"}, "hematopoietic stem cells": {"system": "hematopoietic stem cells", "experiment": "Bone marrow transplantation of ex vivo treated donor CD45.1 bone marrow cells", "format": "in vivo, mouse", "experimental": "Bone marrow cells were taken out ex vivo, treated with 6.2 μM of 27-hydroxycholesterol (27-HC), and then subjected to bone marrow transplantation.\nSpecifically, referring to FIG. 9A, BM cells were extracted from the tibia and femur of a donor CD45.1 mouse, and then treated with vehicle, 6.2 μM cholesterol, and 6.2 μM 27-hydroxycholesterol for 48 hours. Then, bone marrow transplantation was performed by mixing the bone marrow cells of the CD45.2 mouse in a 1:1 ratio and injecting the mixture into the caudal vein of a recipient CD45.2 mouse that had been irradiated with 4 Gy. One month later, blood was extracted from the veins of the recipient mouse that had received bone marrow transplantation, and the cell proportion of the donor mouse was analyzed. Blood was extracted from the mouse jugular vein and added in 10 mM EDTA to prevent blood coagulation, and added in an ACK lysis buffer to lyse red blood cells. It was confirmed that after attaching CD45.1-APC and CD45.2-FITC antibodies, donor mouse CD45.1 cells were analyzed using FACSCanto2 equipment, and 27-hydroxycholesterol suppressed the regeneration and proliferation of hematopoietic stem cells, as illustrated FIGS. 9A to 9E."}, "[9]": {"system": "myeloid leukemia cells (HL60, KG1a, K562 cells)", "experiment": "ROS (DCFDA staining) in leukemia cell lines", "format": "cell-based", "settings": "compared to control cells", "experimental": "as §2"}, "[10]": {"system": "hematopoietic stem and progenitor cells (HSPC)", "experiment": "Apoptosis (Annexin V / 7AAD, FACS) in mouse bone marrow cells", "format": "cell-based", "settings": "6.2 μM, 48 hours, compared to control cells", "experimental": "as §1"}}, "note": "“Also recorded” adds a separate entry of the source.", "data": [{"molecule": "CC(C)CCC[C@@H](C)[C@H]1CC[C@H]2[C@@H]3[C@H](O)C=C4C[C@@H](O)CC[C@]4(C)[C@H]3CC[C@]12C", "note": "[7α-hydroxycholesterol, reference compound]", "values": [{"measurement": "effect on chronic myeloid leukemia cells", "setting": "[1]", "value": "no effect"}, {"measurement": "number of cells in leukemia cell lines", "setting": "[1]", "value": "did not have a significant effect"}, {"measurement": "effect on acute myeloid leukemia cell lines", "setting": "[1]; relative to 27-hydroxycholesterol", "value": "weaker effect"}]}, {"molecule": "C[C@@H](CO)CCC[C@@H](C)[C@H]1CC[C@H]2[C@@H]3CC=C4C[C@@H](O)CC[C@]4(C)[C@H]3CC[C@]12C", "note": "[27-hydroxycholesterol]", "values": [{"measurement": "ROS in LKS cells, HPC and HSC", "setting": "[2]; 6.2 μM, 48 hours, compared to control cells", "value": "increased"}, {"measurement": "differentiation (CD11b+) of myeloid leukemia cells", "setting": "[3]", "value": "increased"}, {"measurement": "gene expression related to apoptosis and ER stress", "setting": "[4]; LKS and HPC compared to total bone marrow cells", "value": "increased"}, {"measurement": "expression of Bax gene related to apoptosis", "setting": "[4]; LKS cells and HPC", "value": "increased"}, {"measurement": "expression of Chop, Ire1α and Xbp1s genes related to ER stress", "setting": "[4]; LKS cells and HPC", "value": "increased"}, {"measurement": "expression of Era gene related to cancer cell growth", "setting": "[4]; LKS cells and HPC", "value": "increased"}, {"measurement": "cytotoxic effect (conclusion of Example 1)", "setting": "[5]", "value": "cytotoxic effect specifically on hematopoietic stem and progenitor cells"}, {"measurement": "effect on LK, LKS, HPC, HSC, monocytes, neutrophils, B cells, T cells", "setting": "[5]; 0.62 μM, 24 hours, FIG. 11B", "value": "no effect on all cells"}, {"measurement": "number of LK cells, LKS cells, HPC and HSC", "setting": "[5]; BM cells treated for 24 hours or 48 hours, FIG. 11A", "value": "decreased"}, {"measurement": "proportions of LKS cells, hematopoietic progenitor cells and hematopoietic stem cells", "setting": "[5]; BM cells treated with 27-hydroxycholesterol, FIG. 1A/1B", "value": "decreased"}, {"measurement": "proportions of common myeloid, granulocytic macrophage, megakaryocytic erythroid and common lymphocytic progenitor cells", "setting": "[5]; BM cells, FIG. 1C/1D", "value": "decreased"}, {"measurement": "proportions of monocytes, neutrophils, B cells and T cells", "setting": "[5]; BM cells, FIG. 1E/1F", "value": "no change"}, {"measurement": "proportions of LKS cells, HPC and HSC", "setting": "[5]; Example 2, 6.2 μM, 48 hours, compared to control cells, FIG. 2F", "value": "decreased"}, {"measurement": "cKit+ cells and CD48+ cells", "setting": "[5]; FIG. 11C", "value": "reduces"}, {"measurement": "growth of leukemia cells (HL60 cells and K562 cells)", "setting": "[1]; FIG. 8A/8B", "value": "inhibited; also recorded: minimal; also recorded: suppressed"}, {"measurement": "number of cells in leukemia cell lines", "setting": "[1]", "value": "decreased"}, {"measurement": "ER stress (amount of ER stress protein)", "setting": "[6]; HL60 cells, 48 hours", "value": "increased"}, {"measurement": "ER stress response pathway", "setting": "[6]; THP1 cells, FIG. 5A", "value": "increases"}, {"measurement": "apoptosis of myeloid leukemia cells", "setting": "[7]", "value": "increased"}, {"measurement": "number of myeloid leukemia cells (cell count)", "setting": "[8]", "value": "reduce; also recorded: significantly decreased"}, {"measurement": "proportions of donor monocytes, B cells and T cells in blood of recipient mouse", "setting": "hematopoietic stem cells; 6.2 μM, 48 hours ex vivo, after transplantation, FIG. 9C", "value": "decreased"}, {"measurement": "engraftment ability (donor CD45.1 cells) in bone marrow cells", "setting": "hematopoietic stem cells; 6.2 μM, 48 hours ex vivo, after transplantation, FIG. 9D", "value": "decreased"}, {"measurement": "proportions of donor LK cells, LKS cells, HPC and HSC in bone marrow cells of recipient mouse", "setting": "hematopoietic stem cells; 6.2 μM, 48 hours ex vivo, after transplantation, FIG. 9E", "value": "decreased"}, {"measurement": "engraftment ability (donor CD45.1 cells) in blood", "setting": "hematopoietic stem cells; 6.2 μM, 48 hours ex vivo, one month after transplantation, FIG. 9B", "value": "decreased"}, {"measurement": "regeneration and proliferation of hematopoietic stem cells", "setting": "hematopoietic stem cells; donor BM cells treated ex vivo with 6.2 μM for 48 hours, then transplanted", "value": "suppressed"}, {"measurement": "ROS proportion of myeloid leukemia cells", "setting": "[9]", "value": "increased and high"}, {"measurement": "apoptosis in LKS cells, HPC and HSC", "setting": "[10]", "value": "increased"}]}, {"molecule": "CC(=O)N[C@@H](CS)C(=O)O", "note": "[N-acetylcysteine, reference compound]", "values": [{"measurement": "ROS in LKS cells, HPC and HSC treated with 27-hydroxycholesterol, on treating NAC", "setting": "[2]; 27-hydroxycholesterol plus antioxidant NAC, FIG. 2E", "value": "increased"}, {"measurement": "decreased proportions of LKS cells, HPC and HSC by 27-hydroxycholesterol, on treating NAC", "setting": "[5]; 27-hydroxycholesterol plus antioxidant NAC, FIG. 2F", "value": "suppressed"}]}]}
